Measured values taken from US12636386B2, “Compositions and methods for the treatment and imaging of cancer” (BOARD OF REGENTS OF THE UNIVERSITY OF NEBRASKA, priority 2021, dated 2026).
Where “and” joins values, the source holds several entries; their conditions need not be identical. Identical values can stand only once. Like-named read-outs stand apart in the source and are kept apart here.

Assays:
[1] = from Kortylewicz, et al. (2020) J Med Chem; cited from earlier work
[2] = from Kortylewicz, et al. (2020) J Med Chem; cited from earlier work; remark: listed apart in the source
[3] = tested on: N1E-115 cells; assay: Subcellular distribution in N1E-115 cells; type: cell-based, murine
Text: (§1) Two human NB cell lines SK-N-SH (SK) and BE(2)-C(BE) and one murine NB cell line N1E-115 (N1E) were purchased from the American Type Culture Collection (ATCC; Manassas, VA). Cells were maintained according to the vendor's instructions. For animal studies, cells were harvested when ˜70% confluent and cryopreserved until ready to use.
(§2) Established protocols were used in these experiment (Kortylewicz, et al. (2020) J Med Chem., 63:2051-2073; Baranowska-Kortylewicz, et al. (1994) J Label Compd Radiopharm., 34(6):513-521; Kortylewicz, et al. (2009) J Med Chem., 52(16):5124-5143). Briefly, NB cells plated in TPP T25 flasks (Midwest Scientific, Valley Park, MO) at 5×10^5 cells per flask were maintained in culture for 48-72 hours, depending on the doubling time of the cell line, until 60%-70% confluent. For time-dependent uptake studies, GPAID was added to the growth medium to produce the average concentrations of 28.2±5.5, 27.6±2.8, and 30.7±1.0 kBq/ml in SK, BE, and N1E cells, respectively. Radioactive medium was removed after 1, 5, 16, 24, and 48 hours in culture (n=4 per time). Cells were harvested by scraping and enumerated using Cellometer (Nexcelom Bioscience, Lawrence, MA). Cell suspensions were centrifuged for 10 minutes at 1500 rpm; cell pellets resuspended in ice-cold PBS, transferred into microfuge tubes, and centrifuged at 500×g for 10 minutes. The radioactive content of cell pellets was measured in a gamma counter. The cellular uptake was calculated in terms of MBq per cell. For subcellular fractionation experiments, NB cells grown as monolayers were treated with GPAID and processed as described (Kortylewicz, et al. (2020) J Med Chem., 63:2051-2073). In the concentration-dependent uptake experiments, GPAID in the appropriate medium at several concentrations was added to the cell monolayers. Cells were processed after 1-hour incubation. Radioactive medium was removed, and monolayers were washed once with full nonradioactive medium and PBS. Cells were harvested and enumerated, and their radioactive content was measured.

[4] = Stability in PBS; type: physicochemical; settings: 37° C.
Procedure: (§3) Aliquots of GPAID (1.4-2.3 MBq) in 120 μl of 25% EtOH/PB (10-mM, pH 6.1) were added to 6.88-ml phosphate-buffered saline (PBS), cell culture media, or serum (mouse, pig, or human). Mixtures were briefly vortexed and incubated at 37° C. and 5% CO2. At selected times, 1 ml of GPAID incubation mixture was withdrawn, 1-ml MeCN was added, and the mixture was vortexed and centrifuged at 2000 rpm for 15 minutes at 4° C. The supernatant was removed, and the radioactivity measured. Supernatant (250-500 μl) were acidified to pH˜6 with 0.05-N TFA (2-8 μl). The excess of MeCN was evaporated with a stream of nitrogen and 100 μl of water added. This mixture was passed through a 0.22-μm filter and 100 μl (111-185 kBq) injected onto the HPLC system. HPLC analysis of extracts proceeded on the ACE C18 100-A column ([…], 4.6×250 mm) eluted at 0.8 ml/minute with a linear gradient of MeCN from 10% to 95% over 45 minutes and kept at 95% MeCN for 15 minutes the radioactivity detection (Bioscan). Both solvents contained 0.07% TFA (v/v).
(§4) Ex vivo stability of GPAID was assessed in PBS, cell culture medium without NB cells, and in the presence of NB cells and in human, mouse, and porcine sera after various times of incubation. […] Half-lives in sera were calculated from the area under the peak of the intact GPAID recovered from the incubation mixtures plotted as a function of the incubation time. […]

[5] = tested on: BE(2)-C cells; assay: Subcellular distribution in BE(2)-C cells; type: cell-based, human
Text: as §1, §2

[6] = Ex vivo stability in human serum; type: in vitro ADME; settings: 37° C., 5% CO2; average±SE; monoexponential fit of percent intact compound
Procedure: as §3, §4

[7] = Hemoglobin and hematocrit in treated tumor-bearing mice; type: in vivo; settings: mice treated with 3.64±0.10 MBq GPAID IP; termination necropsy
Text: (§5) Four-week-old NCr nu/nu mice, male (n=10) and female (n=10), received IP implant of 5×10^6 N1E cells. One week later, mice were randomly assigned via a lottery to either control or treatment group. Control mice were given IP injection of the vehicle. Mice in the therapy group received a bolus IP injection of 3.64±0.10 MBq GPAID per mouse (˜145 MBq/kg body weight [bw]). Triplicate aliquots of the injected dose (ID) were counted in a gamma counter. Syringes containing the dose and syringes after the injection were weighed on the analytical balance to determine ID. Whole body radioactivity was also measured immediately after each injection to confirm ID. Necropsy was performed at the termination of the experiment. Blood was collected via cardiac puncture. Aliquots were reserved for determination of hemoglobin (Hb; HemoCue, Ängelholm, Sweden) and hematocrit (Hct).

[8] = monoprotonated cation at physiological pH; cited from earlier work
[9] = tested on: BE(2)-C and SK-N-SH cells; assay: Time- and concentration-dependent cellular uptake, statements covering both NB cell lines; type: cell-based, human
Text: as §1, §2

[10] = tested on: SK-N-SH cells; assay: Subcellular distribution in SK-N-SH cells; type: cell-based, human
Text: as §1, §2

[11] = tested on: BE(2)-C cells; assay: Clonogenic survival of BE(2)-C cells; type: cell-based, human; settings: on average
Procedure: (§6) Cells were plated into T25 flasks and allowed to grow until ˜60%-70% confluent. Fresh medium (3 ml) was added to one set of flasks (n=4 per time). To the second set of flasks (n=4 per time), fresh medium (3 ml) containing 100-μM nonradioactive MIBG was added. All cells were returned to the incubator for 30 minutes, after which time 3 ml of medium containing GPAID (51.5±1.4 kBq/ml) was added to produce the final concentration of 50-μM MIBG and 25.8±0.7 kBq/ml GPAID. Cells were returned to the incubator for additional 1, 24, and 48 hours. At designated times, media were removed, monolayer washed 1× with full medium, 2× with PBS, and SK and BE cells were harvested with the nonenzymatic cell dissociation solution (Sigma-Aldrich). N1E cells were harvested by flushing the monolayer with spent media. Cell numbers were determined, and their radioactive content measured in a gamma counter. The whole cell uptake was calculated on terms of MBq per cells. The clonogenic survival was calculated as the ratio of the number of colonies produced by cells treated with nonradioactive MIBG and GPAID to the number of colonies produced by cells treated with GPAID only. The cell survival at 24 hours was expressed as the ratio of viable cells in treatment groups to cells in untreated controls.

[12] = tested on: SK-N-SH cells; assay: Radioactive species in medium recovered from NB cell monolayers cultured with GPAID; type: cell-based, human
Procedure: as §3
Ex vivo stability of GPAID was assessed in PBS, cell culture medium without NB cells, and in the presence of NB cells and in human, mouse, and porcine sera after various times of incubation. The analytical details are provided hereinabove. Half-lives in sera were calculated from the area under the peak of the intact GPAID recovered from the incubation mixtures plotted as a function of the incubation time. The degradation curves followed the first-order kinetics. Data were fitted into the monoexponential equations with the intercept set at 100% (FIG. 2A). In a typical experiment, a final concentration of GPAID in serum approximated radioactivity levels of ^131IMIBG in blood of children receiving therapeutic doses (Pandit-Taskar, et al. (2017) Clin Nucl Med., 42(10):741-748; Matthay, et al. (1998) J Clin Oncol., 16(1):229-236). 0

[13] = tested on: NB cells; assay: Survival of NB cells, trypan blue exclusion method followed by clonogenic assay; type: cell-based, human; settings: trypan blue exclusion and clonogenic assay; 25.8±0.7 kBq/ml
Procedure: as §6

[14] = Ex vivo stability in pig serum; type: in vitro ADME; settings: 37° C., 5% CO2; average±SE; monoexponential fit of percent intact compound
Procedure: as §3, §4

[15] = Ex vivo stability in mouse serum; type: in vitro ADME; settings: mouse serum contains esterases including carboxylesterase
Procedure: as §3, §4

[16] = Biodistribution at necropsy 14 days after the dose; type: in vivo, mice; settings: necropsy 14 days after the IP dose
Text: as §5

[17] = tested on: N1E-115 tumors; assay: Therapy of mice bearing IP N1E allografts; type: in vivo; settings: single IP dose 3.64±0.10 MBq per mouse 1 week after implant; 14 days after treatment; NT controls 2.61±0.57 g; p=0.03
Procedure: Research involving animals was performed in accordance with the UNMC institutional guidelines and protocols as defined by the Institutional Animal Care and Use Committee for US institutions. Athymic NCr nude mice (spontaneous mutant) were purchased from Taconic (Rensselaer, NY). The intraperitoneal route […] was used for the tumor implant and dose administration. All experiments were conducted in mice of both genders 4 to 8 weeks old.
as §5, with “Aliquots were reserved for determination of hemoglobin (Hb; HemoCue, Ängelholm, Sweden) and hematocrit (Hct).” left out
All variables are expressed as average±standard deviation or ±standard error. The cellular uptake, cell survival, and other biological properties were analyzed using two-sided Student's t test. […]

[18] = Stability in cell culture medium without NB cells; type: physicochemical; settings: 5% CO2
Procedure: as §3, §4

[19] = molecular target: T1, norepinephrine transporter (Homo sapiens, UniProt P23975); assay: Competitive uptake assay with nonradioactive MIBG in SK-N-SH cells; type: cell-based; settings: 50 μM nonradioactive MIBG; 25.8±0.7 kBq/ml GPAID; exponentially growing SK cell monolayers
T1 construct: These cells represent a well-established robust model for the NET-specific MIBG uptake; endogenous in cells; host or cells: SK (SK-N-SH) and BE (BE(2)-C) neuroblastoma cells, exponentially growing monolayers
T1 sequence (P23975 whole entry): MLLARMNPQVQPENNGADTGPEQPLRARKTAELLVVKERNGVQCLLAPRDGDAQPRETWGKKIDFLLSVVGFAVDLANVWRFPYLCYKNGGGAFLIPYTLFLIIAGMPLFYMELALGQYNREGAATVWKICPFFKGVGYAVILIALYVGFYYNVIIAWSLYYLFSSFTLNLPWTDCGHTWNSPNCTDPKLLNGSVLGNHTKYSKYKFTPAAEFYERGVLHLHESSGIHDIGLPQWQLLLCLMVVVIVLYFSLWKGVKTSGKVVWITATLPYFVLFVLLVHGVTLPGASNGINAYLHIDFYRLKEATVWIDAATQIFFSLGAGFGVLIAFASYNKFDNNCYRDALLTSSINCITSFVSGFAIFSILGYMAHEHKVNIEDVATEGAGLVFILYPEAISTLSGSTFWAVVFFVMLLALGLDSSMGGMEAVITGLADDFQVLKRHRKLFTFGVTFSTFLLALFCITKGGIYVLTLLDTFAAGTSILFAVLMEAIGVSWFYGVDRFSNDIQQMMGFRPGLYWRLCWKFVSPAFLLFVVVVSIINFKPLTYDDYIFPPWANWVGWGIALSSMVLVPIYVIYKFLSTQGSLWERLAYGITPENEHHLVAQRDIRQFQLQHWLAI
Procedure: as §6

[20] = molecular target: NET (Homo sapiens, UniProt P23975); settings: Smets, et al. (1989) Cancer Res.; cited from earlier work
Sequence of NET (P23975 whole entry): as above

[21] = molecular target: T1, norepinephrine transporter; assay: Competitive uptake assay with nonradioactive MIBG in BE(2)-C cells; type: cell-based; settings: 50 μM nonradioactive MIBG; 25.8±0.7 kBq/ml GPAID; exponentially growing BE cell monolayers
Procedure: as §6

[22] = N1E cells, 24-hour incubation, average 29±3 kBq/ml
[23] = 1 hour with GPAID, washed, additional 4 hours in nonradioactive medium
[24] = incubated with exponentially growing NB cell monolayers for 24 hours

Molecule: N=C(N)NCCCCCC(=O)O[C@H]1C[C@H](n2cc([125I])c(=O)[nH]c2=O)O[C@@H]1CO [IDG, 5-[^125I]iodo-3′-O-(ε-guanidinohexanoyl)-2′-deoxyuridine]
- Half-life in human serum [1]: 2.3 ± 0.1 h and ~2.3 h
- Half-life in pig serum [2]: 3.6 ± 0.1 h

Molecule: N=C(N)NCc1cccc([125I])c1 [^125IMIBG]
- Recovery in the cytoplasmic fraction ([3]; N1E cells, 24-hour incubation): majority
- ^125I recovered in DNA (DNA pellet) [3, 22]: 0%
- ^125I retrieved in the soluble nuclear fraction [3, 22]: ~19%

Molecule: (R)-(−)-5-[^125I]Iodo-3′-O-[2-(ε-guanidinohexanoyl)-2-phenylacetyl]-2′-deoxyuridine [GPAID]
- Stability in PBS [4]: stable
- Total cellular radioactivity associated with DNA [5, 23]: > 95%
- Total recovered ^125I in DNA ([5]; after 1 hour with GPAID): 32%
- ^125I associated with DNA ([5]; at 24 hours): practically all
- Half-life in human serum [6]: 7.9 ± 0.7 h
- HCt level [7]: within the normal range values
- Hb level [7]: within the normal range values
- pKa [8]: ~12
- ^125I disintegrations accumulated in 24 hours ([9]; 1-hour exposure, all tested concentrations >0.015 MBq/ml): > 20 disintegrations per cell
- Dependence of cellular radioactivity on extracellular concentration ([9]; 1-hour treatment, entire tested range up to 200 kBq/ml (2.45×10^−9 M)): directly proportional to the extracellular concentration of GPAID
- Cellular uptake in BE cells compared with SK cells ([9]; 1 hour incubation, washed and processed immediately): nearly identical
- Total cellular radioactivity associated with DNA [10, 23]: ~75%
- Total recovered ^125I in DNA ([10]; after 1 hour with GPAID): ~22%
- ^125I associated with DNA ([10]; at 24 hours): practically all
- BE cells that survived, retained reproductive integrity and formed colonies ([11]; GPAID extracellular concentration 25.8±0.7 kBq/ml): 32%
- Total radioactivity in the form of either free ^125I or ^125I-uracil in medium ([12]; SK-N-SH cells cultured with GPAID for 24 hours at 37° C., 5% CO2 (FIG. 2D)): ~30%
- Intact GPAID in recovered media [12, 24]: ~42%
- ^125IUdR in recovered media [12, 24]: ~28%
- Survival of NB cells treated with GPAID alone [13]: significant reduction in survival
- Half-life in pig serum [14]: 5.8 ± 2.1 h
- Stability in mouse serum [15]: not stable
- Residual level in the adrenal glands [16]: 0.034±0.016 % ID/g
- Radioactivity retention in tissues ([16]; all tissues): only marginal radioactivity retention
- ^125I recovered in DNA (DNA pellet) [3, 22]: > 99%
- ^125I activity in the nuclei bound to DNA ([3]; N1E-115 cells, 24-hour treatment, 29±3 kBq/ml (FIG. 3E)): ~100%
- Average tumor weight at necropsy [17]: 0.88 ± 0.54 g
- Stability in cell culture in the absence of NB cells ([18]; 37° C.): stable
- Intact GPAID remaining in cell culture medium without cells ([18]; 24 hours at 37° C.): > 90%

Molecule: N=C(N)NCc1cccc([131I])c1 [MIBG, metaiodobenzylguanidine]
- Colonies from cells exposed to nonradioactive MIBG alongside GPAID compared with GPAID alone ([11]; 50-μM MIBG, 25.8±0.7 kBq/ml GPAID): 3 ×
- Inhibition of GPAID uptake [19]: 70%
- Concentration at which uptake begins to saturate [20]: > 500 nM
- Concentration up to which uptake is linear [20]: ~100 nM
- Inhibition of GPAID uptake [21]: 85%
